From paper PMC8662641, “Site-Specific Labeling of Endogenous Proteins Using CoLDR Chemistry” (Journal of the American Chemical Society, 2021)
“And” between values parts separate entries of the source, which are not always exact repeats. Equal values may be shown once.

Legend:
BTK-1h = molecular target: T1, BTK-1h (Homo sapiens, UniProt Q06187); assay: High-throughput screening with 1h-labeled BTK; assay type: binding; details: Dataset S2A; 200 μM compound, BTK-1h, 32 °C, 10 min
T1 construct: The BTK kinase domain was diluted to 2 μM in the buffer, and 2 μM 1h was added; made in house
Description: The collection was composed of BTK binding compounds obtained in our previous luminescence screen[37] (Data set S2). […] The resulting BTK-1h (50 μL) was added to the inhibitors.

BTK = BTK (Homo sapiens, UniProt Q06187); design: BTK kinase domain was expressed and purified as previously reported; made in house; method as in Reddi et al., J. Am. Chem. Soc. 2021, 143 (13), 4979–4992; details: ref Reddi et al., J. Am. Chem. Soc. 2021, 143 (13), 4979–4992; cited from earlier work
BTK, sequence (Q06187 402-655 limits assumed): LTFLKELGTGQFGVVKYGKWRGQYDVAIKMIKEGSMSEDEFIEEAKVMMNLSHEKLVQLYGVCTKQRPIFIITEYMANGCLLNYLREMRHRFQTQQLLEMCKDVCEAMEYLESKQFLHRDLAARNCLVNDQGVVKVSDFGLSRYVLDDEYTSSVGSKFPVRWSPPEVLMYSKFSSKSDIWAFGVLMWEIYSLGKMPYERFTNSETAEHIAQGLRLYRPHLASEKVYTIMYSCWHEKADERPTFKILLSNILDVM

T1 sequence (Q06187 402-655): as the sequence (Q06187 402-655 limits assumed) above

SMILES | FI (650)/FI (620) (BTK-1h) | FI (BTK-1h)/FI (BTK-1h+Inhibitor) at 620 nm (BTK-1h) | BTK Inhibition reported in luminescence assay* (BTK)
Cc1cc(Nc2cc(CN3CCOCC3)c3nc(C)c(Cc4ccc(Cl)cc4F)n3n2)n[nH]1 [PCM-0095222-002] | 1.03 | 1.045 | 56.6
O=C(O)CSc1cc(NS(=O)(=O)c2ccc(Br)cc2)c2ccccc2c1O [PCM-0215378-001] | 1.912 | 0.9002 | 51.7
CC#CC(=O)Nc1ccc2ncnc(Nc3cccc(Br)c3)c2c1 [PCM-0215449-001] | 1.009 | 1.056 | 102.8
Cc1cc(Nc2nc(N[C@@H](C)c3ccc(F)cc3)c(C#N)cc2F)n[nH]1 [PCM-0095250-002] | 1.215 | 1.03 | 99.3
COc1cc(NC(=O)c2ccc(-c3ccc(Cl)cc3)o2)cc(OC)c1 [PCM-0095366-002] | 1.0001 | 1.041 | 56.8
Cc1ccc(-n2[nH]c(C)c(N=Nc3cccc(-c4cccc(C(=O)O)c4)c3O)c2=O)cc1C [PCM-0214811-001] | 1.073 and 1.008 | 1.009 and 1.024 | 80.2
COc1ccc2[nH]cc(/C=C3\C(=O)Nc4ccc(NC(=O)CCN5CCCCC5)cc43)c2c1 [PCM-0216653-001] | 1.609 | 0.9946 | 51.7
Cc1cnc(C(=O)N[C@H]2CCCCC/C=C\[C@@H]3C[C@@]3(C(=O)NS(=O)(=O)C3CC3)NC(=O)[C@@H]3C[C@@H](Oc4nc5ccccc5c5ccccc45)CN3C2=O)cn1 [PCM-0216057-001] | 0.9612 | 1.053 | 53.3
CC(C)=CCC/C(C)=C/Cc1c(O)c(CC=C(C)C)c2c(c1O)C(=O)C1=C[C@@H]3C[C@H]4C(C)(C)O[C@@](C/C=C(/C)C(=O)O)(C3=O)[C@@]14O2 [PCM-0216347-001] | 1.074 | 1.011 | 100.4
C=CC(=O)Nc1cccc(Oc2nc(Nc3ccc(N4CCN(C)CC4)cc3)ncc2Cl)c1 [PCM-0095023-002] | 1.149 | 1.02 | 91.7
Cc1cc(-c2ccc(N=Nc3ccc4c(S(=O)(=O)[O-])cc(S(=O)(=O)[O-])c(N)c4c3O)c(C)c2)ccc1N=Nc1ccc2c(S(=O)(=O)[O-])cc(S(=O)(=O)[O-])c(N)c2c1O.[Na+].[Na+].[Na+].[Na+] [PCM-0214845-001] |  | 7.121 | 125.3
COc1cc(N2CCC(N(C)C)CC2)ccc1Nc1ncc(Cl)c(Nc2ccccc2P(C)(C)=O)n1 [PCM-0215177-001] | 1.083 | 1.158 | 64.8
Cc1noc(C)c1-c1ccc(-c2cc(C(N)=O)c(NC(N)=O)s2)c(O[C@H]2CCNC2)c1 [PCM-0215541-001, AZD3264] | 2.057 | 1.467 | 74.1
CC(C)(C)c1cc(NC(=O)Nc2ccc(Oc3ccnc4[nH]c(=O)cnc34)cc2F)n(-c2ccccc2)n1 [PCM-0215780-001] | 1.123 | 1.039 | 61.4
COCCCc1sc(-c2ccccc2)nc1C(=O)Nc1ccccc1-c1nc2cc(CN3CCCC3)cnc2s1.Cl [PCM-0215812-001] | 0.6133 | 1.029 | 57.9
Cc1cnc(Nc2ccc(F)cc2Cl)nc1-c1c[nH]c(C(=O)N[C@H](CO)c2cccc(Cl)c2)c1 [PCM-0213398-002] | 1.007 | 1.033 | 60
O=S(=O)([O-])c1ccc2cc(N=Nc3cc(S(=O)(=O)[O-])c4cccnc4c3O)ccc2c1.[Na+].[Na+] [PCM-0215685-001] | 1.281 | 1.027 | 54.1

SMILES | FI (650)/FI (620) (BTK-1h) | FI (BTK-1h)/FI (BTK-1h+Inhibitor) at 620 nm (BTK-1h) | BTK Inhibition reported in luminescence assay* (BTK)
Cn1cc(-c2[nH]c3cc(NC(=O)[C@H](N)C4CCCCC4)cc4c3c2C=NNC4=O)cn1 [PCM-0095372-002] | 2.04 | 1.441 | 111
Cc1cc(N=Nc2ccc(S(=O)(=O)Nc3ccccn3)cc2)c(N)cc1O [PCM-0215414-001] | 1.18 | 1.008 | 76.4
COC(=O)N[C@H](C(=O)N1CC2(CC2)C[C@H]1c1ncc(-c2ccc3c(c2)C(F)(F)c2cc(-c4ccc5nc([C@@H]6[C@H]7CC[C@H](C7)N6C(=O)[C@@H](NC(=O)OC)C(C)C)[nH]c5c4)ccc2-3)[nH]1)C(C)C [PCM-0215396-001] | 0.8983 | 1.05 | 74.9
Nc1ccc(O)cc1 [PCM-0216110-001] | 1.311 | 1.005 | 82.6
O=C(O)c1ccc(N2C(=O)/C(=C/c3ccc(-c4ccc([N+](=O)[O-])cc4)o3)C=C2c2ccccc2)cc1 [PCM-0095764-003] | 1.233 | 0.999 | 98.1
CC(=O)Nc1nc(-c2cccc(NS(=O)(=O)c3cccc4c(N(C)C)cccc34)c2)cs1 [PCM-0215679-001] | 1.491 | 1.033 | 97.3
CO[C@@H](C(=O)N1Cc2[nH]nc(NC(=O)c3ccc(N4CCN(C)CC4)cc3)c2C1)c1ccccc1 [PCM-0094888-003] | 1.661 | 1.3808 | 85.5
C1=C/COCc2cc(ccc2OCCN2CCCC2)Nc2nccc(n2)-c2cccc(c2)COC/1 [PCM-0215268-001] | 1.364 | 1.2233 | 71.7
Cl.Cl.Fc1ccc(C(c2ccc(F)cc2)N2CCN(C/C=C/c3ccccc3)CC2)cc1 [PCM-0065210-003] | 0.8526 | 1.036 | 87.2
CN1CCN(Cc2ccc(Nc3ncc(Cl)c(Nc4ccccc4S(=O)(=O)N(C)C)n3)cc2)CC1 [PCM-0215510-001] | 1.221 | 1.15 | 67.2
COc1cccc(-n2c(=O)[nH]c3cc(Cl)n(-c4ccc(-c5cccc(OC)c5O)cc4)c3c2=O)c1 [PCM-0215555-001] | 1.019 | 1.0396 | 99.3
Cc1cc(C)nc(NS(=O)(=O)c2ccc(NC(=S)NC(=O)COc3ccc(Br)cc3Cl)cc2)n1 [PCM-0095801-002] | 0.8921 | 1.024 | 59.5
O=c1cc(-c2ccccc2)oc2cc(O)c(O)c(O)c12 [PCM-0214670-001] | 2.028 | 1.072 | 79.4
COc1cc2nccc(Oc3ccc(NC(=O)C4(C(=O)Nc5ccc(F)cc5)CC4)cc3)c2cc1OC [PCM-0094920-004] | 1.097 and 1.08 | 1.121 and 1.125 | 123.4
CC(=O)O[C@@H]1CC[C@@]2(C)[C@@H](CC[C@]3(C)[C@@H]2C(=O)C=C2[C@@H]4[C@@H](C)[C@H](C)CC[C@]4(C)CC[C@]23C)[C@@]1(C)C(=O)O [PCM-0216599-001] | 0.9109 | 1.037 | 88
NC(=O)Nc1cc(-c2cccc(F)c2)sc1C(=O)N[C@H]1CCCNC1 [PCM-0095092-003] | 1.105 | 1.137 | 86.9
